Test results as given in US12344595B2, “2-amino-n-phenyl-nicotinamides as NAV1.8 inhibitors” (Merck Sharp & Dohme LLC, priority 2018, dated 2025).

Biological target: human Nav1.8 (Homo sapiens (Human), UniProt Q9Y5Y9)
Assay: Nav1.8 Qube automated patch-clamp assay
Assay type: cell-based
Conditions: Nav1.8 Qube Assay; human Nav1.8 channels stably expressed in HEK 293 cells
How it was run: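 IC50 values came from Hill fitting of peak currents: pulse 1 for resting-state and pulse 10 for inactivated-state inhibition. Currents were recorded in stably transfected HEK293 cells at room temperature, with ten 20 ms steps to 10 mV at 1 Hz from a −90 mV hold. External solution was 150 mM NaCl-based; internal solution was CsF/CsCl.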

Chain of human Nav1.8 (Q9Y5Y9 whole entry): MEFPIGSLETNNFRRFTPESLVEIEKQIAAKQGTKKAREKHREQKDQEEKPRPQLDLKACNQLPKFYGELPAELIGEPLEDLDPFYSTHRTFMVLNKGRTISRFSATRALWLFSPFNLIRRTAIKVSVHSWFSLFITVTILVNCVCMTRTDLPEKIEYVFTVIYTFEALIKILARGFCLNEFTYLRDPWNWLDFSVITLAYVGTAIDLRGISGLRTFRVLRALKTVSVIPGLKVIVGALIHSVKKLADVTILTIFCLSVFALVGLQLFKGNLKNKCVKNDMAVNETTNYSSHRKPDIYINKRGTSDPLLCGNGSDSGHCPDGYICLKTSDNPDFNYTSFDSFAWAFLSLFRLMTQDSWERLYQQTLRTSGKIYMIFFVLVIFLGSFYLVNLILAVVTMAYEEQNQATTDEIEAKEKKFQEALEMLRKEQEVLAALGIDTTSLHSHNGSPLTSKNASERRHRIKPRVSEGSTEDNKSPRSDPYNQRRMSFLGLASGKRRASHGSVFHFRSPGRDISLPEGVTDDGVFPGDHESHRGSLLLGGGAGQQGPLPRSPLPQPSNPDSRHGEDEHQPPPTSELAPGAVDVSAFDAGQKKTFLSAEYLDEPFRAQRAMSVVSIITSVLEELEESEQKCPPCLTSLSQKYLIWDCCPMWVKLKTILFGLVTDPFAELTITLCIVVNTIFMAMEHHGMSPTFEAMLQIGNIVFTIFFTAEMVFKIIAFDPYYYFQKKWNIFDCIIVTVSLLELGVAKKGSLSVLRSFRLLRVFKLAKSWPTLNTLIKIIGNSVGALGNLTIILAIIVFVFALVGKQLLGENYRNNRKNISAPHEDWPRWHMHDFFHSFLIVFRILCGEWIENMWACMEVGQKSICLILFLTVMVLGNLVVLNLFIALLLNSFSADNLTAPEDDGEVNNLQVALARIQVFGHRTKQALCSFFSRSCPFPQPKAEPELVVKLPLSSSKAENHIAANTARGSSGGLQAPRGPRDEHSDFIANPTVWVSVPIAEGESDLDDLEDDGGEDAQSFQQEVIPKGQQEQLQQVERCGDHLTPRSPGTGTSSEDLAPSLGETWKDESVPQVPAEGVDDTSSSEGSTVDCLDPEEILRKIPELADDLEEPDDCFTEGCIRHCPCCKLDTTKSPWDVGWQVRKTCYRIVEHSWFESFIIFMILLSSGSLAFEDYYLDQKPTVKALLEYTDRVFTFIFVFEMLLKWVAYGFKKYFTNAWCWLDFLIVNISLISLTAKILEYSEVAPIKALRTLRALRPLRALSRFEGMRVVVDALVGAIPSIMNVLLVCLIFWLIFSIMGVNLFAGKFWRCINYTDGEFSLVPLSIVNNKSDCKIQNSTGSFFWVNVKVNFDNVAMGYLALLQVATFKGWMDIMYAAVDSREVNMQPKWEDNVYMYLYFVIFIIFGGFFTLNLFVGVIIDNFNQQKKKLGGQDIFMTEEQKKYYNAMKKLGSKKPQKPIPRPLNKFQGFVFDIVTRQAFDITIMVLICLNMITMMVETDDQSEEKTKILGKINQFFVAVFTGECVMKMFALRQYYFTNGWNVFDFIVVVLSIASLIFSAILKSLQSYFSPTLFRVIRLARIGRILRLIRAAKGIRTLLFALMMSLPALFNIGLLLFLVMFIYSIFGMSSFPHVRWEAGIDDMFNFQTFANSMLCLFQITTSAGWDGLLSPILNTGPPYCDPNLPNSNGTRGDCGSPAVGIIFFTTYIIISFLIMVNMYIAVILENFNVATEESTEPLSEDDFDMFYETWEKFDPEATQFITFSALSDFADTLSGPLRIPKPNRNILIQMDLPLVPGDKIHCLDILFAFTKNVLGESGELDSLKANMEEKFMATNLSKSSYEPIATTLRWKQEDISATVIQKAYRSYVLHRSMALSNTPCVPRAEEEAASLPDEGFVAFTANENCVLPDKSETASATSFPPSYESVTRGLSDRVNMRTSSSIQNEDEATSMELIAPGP

Compound | IC50 [nM]
NC(=O)c1cccc(NC(=O)c2cc(C(F)(F)F)cnc2N2CC3CCC(F)(F)C3C2)c1 (stereo not drawn) [Example 108, N-(3-carbamoylphenyl)-2-(4,4-difluoro-1,3,3a,- 5,6,6a-hexahydrocyclo-penta[c]pyrrol-2-yl)-5-(trifluoromethyl)-pyridine-3-carboxamide] | 148
NC(=O)c1cccc(NC(=O)c2cc(C(F)(F)F)cnc2N2CCC3(CC3)C(F)(F)C2)c1 [Example 109, N-(3-carbamoylphenyl)-2-(8,8-difluoro-6-aza-spiro[2.5]octan-6-yl)-5-(trifluoro-methyl)-pyridine-3-carboxamide] | 860
NC(=O)c1cccc(NC(=O)c2cc(C(F)(F)F)cnc2N2CCCC(F)(F)C2)c1 [Example 110, N-(3-carbamoylphenyl)-2-(3,3-difluoro-1-piperidyl)-5-(tri-fluoromethyl)pyridine-3-carboxamide] | 3770
C[C@@H]1CN(c2ncc(C(F)(F)F)cc2C(=O)Nc2ccc3c(c2)S(=O)(=O)NC3)C[C@H](C)C1(F)F [Example 111, 2-[(3S,5R)-4,4-difluoro-3,5-dimethyl-1-piperidyl]-N-(1,1-dioxo-2,3-dihydro-1,2-benzothiazol-6-yl)-5-(trifluoromethyl) pyridine-3-carboxamide] | 63
C[C@@H]1CN(c2ncc(C(F)(F)F)cc2C(=O)Nc2cccc(S(N)(=O)=O)c2)C[C@H](C)C1(F)F [Example 125, 2-[(3S,5R)-4,4-difluoro-3,5-dimethyl-1-piperidyl]-N-(3-sulfamoylphenyl)-5-(trifluoromethyl)-pyridine-3-carboxamide] | 2.4
NS(=O)(=O)c1cccc(NC(=O)c2cc(C(F)(F)F)cnc2N2C[C@H]3C[C@@H](C2)C3(F)F)c1 [Example 132, 2-[(1R,5S)-6,6-difluoro-3-azabicyclo[3.1.1]-heptan-3-yl]-N-(3-sulfamoylphenyl)-5-(trifluoromethyl)-pyridine-3-carboxamide] | 170
NS(=O)(=O)c1cccc(NC(=O)c2cc(C(F)(F)F)cnc2N2C[C@@H]3[C@H](C2)C(F)(F)C3(F)F)c1 [Example 133, N-(3-sulfamoylphenyl)-2-[(1R,5S)-6,6,7,7-tetrafluoro-3-azabicyclo-[3.2.0]heptan-3-yl]-5-(trifluoromethyl)-pyridine-3-carboxamide] | 21
NS(=O)(=O)c1cccc(NC(=O)c2cc(C(F)(F)F)cnc2N2C[C@H]3CC[C@H]3C2)c1 [Example 134, 2-((1R,5S)-3-azabicyclo[3.2.0]heptan-3-yl]-N-(3-sulfamoyl-phenyl)-5-(trifluoro-methyl)-pyridine-3-carboxamide] | 25
NS(=O)(=O)c1cccc(NC(=O)c2cc(C(F)(F)F)cnc2N2C3CCC2CC3)c1 [Example 139, 2-(7-azabicyclo[2.2.1]heptan-7-yl)-N-(3-sulfamoyl-phenyl)-5-(trifluoro-methyl)pyridine-3-carboxamide] | 3460
NS(=O)(=O)c1cccc(NC(=O)c2cc(C(F)(F)F)cnc2N2CCO[C@H](C(F)(F)F)C2)c1 [Example 140, N-(3-sulfamoylphenyl)-5-(trifluoromethyl)-2-[(2S)-2-(trifluoro-methyl)--morpholin-4-yl]pyridine-3-carboxamide] | 83
NS(=O)(=O)c1cccc(NC(=O)c2cc(C(F)(F)F)cnc2N2CCO[C@@H](C(F)(F)F)C2)c1 [Example 141, N-(3-sulfamoylphenyl)-5-(trifluoromethyl)-2-[(2R)-2-(trifluoro-methyl)morpholin-4-yl]pyridine-3-carboxamide] | 553
C[C@@H]1CN(c2ncc(C(F)(F)F)cc2C(=O)Nc2cccc(S(N)(=O)=O)c2)C[C@H](C(F)(F)F)O1 [Example 142, 2-[(2R,6R)-2-methyl-6-(trifluoromethyl)morpholin-4-yl]-N-(3-sulfamoylphenyl)-5-(trifluoromethyl)-pyridine-3-carboxamide] | 1150
NS(=O)(=O)c1cccc(NC(=O)c2cc(C(F)(F)F)cnc2N2CCNC(C(F)(F)F)C2)c1 (stereo not drawn) [Example 143, N-(3-sulfamoylphenyl)-5-(trifluoromethyl)-2-[3-(trifluoromethyl)-piperazin-1-yl]pyridine-3-carboxamide] | 2180

Continued, values first:

IC50 [nM] | Compound
73 | NC(=O)c1cccc(NC(=O)c2cc(C(F)(F)F)cnc2N2CCCCCCC2)c1 [Example 107, 2-(azocan-1-yl)-N-(3-carbamoylphenyl)-5-(trifluoromethyl)-pyridine-3-carboxamide]
242 | NS(=O)(=O)c1cc(F)cc(NC(=O)c2cc(C(F)(F)F)cnc2N2CCCCC2)c1 [Example 114, N-(3-fluoro-5-sulfamoyl-phenyl)-2-(1-piperidyl)-5-(tri-fluoromethyl)-pyridine-3-carboxamide]
567 | NS(=O)(=O)c1cc(NC(=O)c2cc(C(F)(F)F)cnc2N2CCCCC2)ccc1F [Example 115, N-(4-fluoro-3-sulfamoyl-phenyl)-2-(1-piperidyl)-5-(trifluoro-methyl)pyridine-3-carboxamide]
3000 | NS(=O)(=O)c1ccc(F)c(NC(=O)c2cc(C(F)(F)F)cnc2N2CCCCC2)c1 [Example 116, N-(2-fluoro-5-sulfamoyl-phenyl)-2-(1-piperidyl)-5-(tri-fluoromethyl)pyridine-3-carboxamide]
778 | CC(C)S(=O)(=O)c1cccc(NC(=O)c2cc(C(F)(F)F)cnc2N2CCCCCC2)c1 [Example 117, 2-(azepan-1-yl)-N-(3-isopropylsulfonylphenyl)-5-(trifluoromethyl)-pyridine-3-carboxamide]
2280 | O=C(Nc1ccc2c(c1)S(=O)(=O)C=C2)c1cc(C(F)(F)F)cnc1N1CCCCCC1 [Example 118, 2-(azepan-1-yl)-N-(1,1-dioxobenzothiophen-6-yl)-5-(trifluoromethyl)-pyridine-3-carboxamide]
2400 | CC(C)CS(=O)(=O)c1cccc(NC(=O)c2cc(C(F)(F)F)cnc2N2CCCCCC2)c1 [Example 119, 2-(azepan-1-yl)-N-(3-isobutylsulfonylphenyl)-5-(trifluoromethyl)-pyridine-3-carboxamide]
3020 | O=C(Nc1cccc(S(=O)(=O)C2CCCC2)c1)c1cc(C(F)(F)F)cnc1N1CCCCCC1 [Example 120, 2-(azepan-1-yl)-N-(3-cyclopentylsulfonylphenyl)-5-(trifluoro-methyl)-pyridine-3-carboxamide]
189 | O=C(Nc1ccc2c(c1)S(=O)(=O)NC2)c1cc(C(F)(F)F)cnc1N1CCCCCC1 [Example 121, 2-(azepan-1-yl)-N-(1,1-dioxo-2,3-dihydro-1,2-benzothiazol-6-yl)-5-(trifluoromethyl)-pyridine-3-carboxamide]
9140 | CN1Cc2ccc(NC(=O)c3cc(C(F)(F)F)cnc3N3CCCCCC3)cc2S1(=O)=O [Example 122, 2-(azepan-1-yl)-3-((2-methyl-1,1-dioxido-2,3-dihydrobenzo[d]isothiazol-6-yl)-carbamoyl)-5-(trifluoromethyl)pyridine]
502 | NS(=O)(=O)c1cccc(NC(=O)c2cc(C(F)(F)F)cnc2N2CCCO[C@@H](C(F)(F)F)C2)c1 [Example 144, (R)—N-(3-sulfamoylphenyl)-5-(trifluoromethyl)-2-(2-(trifluoromethyl)-1,4-oxazepan-4-yl) nicotinamide]
